In patent US10159670B2, “Methods of diagnosing and treating motor neuron diseases and other cellular stress-related diseases” (priority 2012, dated 2018):
Entries after “also recorded” stand apart in the source; their conditions may differ.

Assays:
[1] = system: HEK293 cells transfected with ALS-causing mutant SOD1 G93A; experiment: miRNA and pre-miRNA expression (qPCR) in HEK293 cells transfected with SOD1 G93A; type: cell-based; details: 100 μM Enoxacin
Procedure: Data normalized to miRNA levels in cultures that were transfected with GFP and treated with Doxycyclin and to the expression of the small RNAs 5S. Pre-miRNA expression normalized to beta-actin. […] For miRNA studies in cultured cells, reverse transcription for consecutive parallel analysis of pre-miRNA and miRNA expression was performed using miScript I & II Kits (Quiagen). Quantitative analysis of miRNA and pre-miRNA expression performed with StepOnePlus Real-Time PCR System (Life technologies Inc.). All experiments were performed in at least 3 independent biological repeats and qPCR performed in technical duplicates.

[2] = system: SOD1 G93A mouse model of ALS; experiment: In vivo Enoxacin study of neuromuscular function in SOD1 G93A mice
Procedure: 800 mg/kg-bodyweight/day (n=40) or carrier (water; n=37) to SOD1 G93A male mice started day 42 of the mouse life. […] 200 mg/kg-bodyweight/day or carrier (water) to SOD1 G93A male mice started day 42 of the mouse life. […] Error bars, s.d.
Food and water was provided ad libitum. […] All other tests employed 2-way ANOVA.
To further evaluate motor function an automated quantitative gait analysis was performed using the CatWalk system [Neumann et al. (2009) J Neurosci Methods 176(1): 34-44].

[3] = system: TDP-43 A315T mouse model of ALS
Procedure: 200 mg/kg-bodyweight/day (n=9) or carrier (water; n=8) to TDP-43 A315T mutant female mice started at day 42 of the mouse life. (FIG. 13A) Onset of symptoms (neurological score 1); 2-way ANOVA p=0.0013. […] Error bars, s.d.
Animals were group-housed on a 12 hour light-dark cycle. Food and water was provided ad libitum. […] RotaRod™ performance (San Diego Instruments) was evaluated at ramp speed 4, 40 rpm. Data was presented as the average latency to fall off the rotarod of three independent rounds per time point, and was normalized to average initial performance at pre-symptomatic stage for each individual for each time point. A fully automated gait analysis with the Catwalk XT™ (Noldus) system was performed. Data was obtained of more than 4 independent rounds on the apparatus. For Hangwire muscle strength assessment, mice were allowed forelimb grip onto a 2-mm thick horizontal metal wire, suspended 80 cm above surface. Ability to successfully raise hindlimbs to grip the wire and crawling to the end of the wire was scored: 1=Successful four-paw grip and crawling to the end of the wire within less than 60 seconds. 2=Four-paw grip for more than 15 seconds without crawling. 3=Failure to successfully establish hindlimb grip in 60 seconds. 4=Inability to sustain forelimb grip for 60 seconds. Each mouse was evaluated in 2 sessions on 2 consecutive days, consisting of 3 trials each, with a 15 minute inter-trial interval. […] 1=collapse or partial leg collapse towards midline or hind leg trembling during tail suspension. 2=toes curl under at least twice during a 12 inch walk, or any part of foot is dragging along cage/table bottom. 3=rigid paralysis or minimal joint movement, foot not being used for forward motion. 4=humane endpoint, mouse cannot right itself within 30 seconds on either side. The locomotion of animals was quantified over a period of 46 hrs in the home cage, by automated sensing of body-heat image using an InfraMot (TSE-Systems). Individual animal movements were summed up every 30 minutes. Animal statistics: Homecage locomotion was analyzed using the 2-sided Student's t-test. Rotarod performance was evaluated using the 2-way ANOVA with repeated measures for each individual. Weight peak, weight decline, onset of symptoms and survival were calculated with GraphPad Prism 6 using the Logrank (Mantel-Cox) test. All other tests employed 2-way ANOVA.

[4] = cited from earlier work
frontal cortex of rats = details: cited from earlier work
SOD1 G93A mice = experiment: Preliminary Enoxacin study in SOD1 G93A mice (from age of 50 days in drinking water); type: in vivo, mouse
Procedure: For in vivo experiments, transgenic SOD1 (superoxide dismutase 1) mice were used which express a G93A mutant form of human SOD1. […] Mouse life span and neuromuscular function were monitored. Neuromuscular function was assessed by neurological score that tests the mouse muscle tonus reflexes and overall in-cage locomotive activity as previously described in […] et al. [[…] et al., Brain Res. (2011) Jun. 7; 1394:90-104]. Hang-wire test was utilized which measures gross physical strength of forelimbs, hindlimbs, capacity to adduct when hand on a pole and to walk. Automated Catwalk gait analysis system was utilized which is based on camera monitored computerized locomotion testing automated system by Noldus Information Technology, The Netherlands.

[5] = Enoxacin pharmacokinetics and efficacy in CF-1 mice (literature); type: in vivo, mouse; details: 100 mg/kg orally in drinking water per day
[6] = system: SOD1 G93A mouse model of ALS; experiment: miRNA expression in lumbar spinal cords of SOD1 G93A mice (qPCR); details: oral, 800 mg/kg body weight per day for 48 days
Procedure: Multiple time-point analysis of miRNA expression in the lumbar spinal cords (L4, L5) of SOD1 G93A mutant mice relative to wild-type sibling controls (3 spinal cords per group). (FIG. 11A) qPCR analysis of miRNAs normalized to average of snoRNA202 and snoRNA234. (FIG. 11B) Levels of mRNA encoding for protein components of the Dicer complex were measured and normalized to the expression of Gapdh. […] (FIG. 11D) Levels of mRNA encoding for protein components of the Dicer complex were measured and normalized to the expression of Gapdh. 2-way ANOVA-testing with significant p-values indicated by *p<0.05, **p<0.01, ***p<0.001. Error bars, s.d.

[7] = system: HEK293 cells transfected with ALS-causing mutants TDP-43 A315T or FUS 495X; experiment: miRNA and pre-miRNA expression (qPCR) in HEK293 cells transfected with ALS-causing TDP-43 or FUS mutants; type: cell-based; details: 100 μM Enoxacin
Text: Depicted are bar-graph representations of relative miRNA expression levels in cells, transfected with GFP and treated with Doxycyclin, compared to the expression of the small RNAs U6 or 5S, on a log2 scale. […] Data normalized to miRNA levels in cultures that were transfected with GFP and treated with Doxycyclin and to the expression of the small RNAs U6 or 5S. Pre-miRNA expression normalized to beta-actin. […] For miRNA studies in cultured cells, reverse transcription for consecutive parallel analysis of pre-miRNA and miRNA expression was performed using miScript I & II Kits (Quiagen). Quantitative analysis of miRNA and pre-miRNA expression performed with StepOnePlus Real-Time PCR System (Life technologies Inc.). All experiments were performed in at least 3 independent biological repeats and qPCR performed in technical duplicates. The present inventors reasoned that Dicing of pre-miRNAs is inhibited by the expression of ALS-causing versions of TDP-43 or FUS and thus searched for changes in mRNA encoding for miRNA-processing factors in gene expression and splicing data from the same patients^9. […] Thus, impaired miRNA bioprocessing in ALS may be reversible by a non-toxic Fluoroquinolone.

[8] = humans; single Enoxacin of 600 mg; cited from earlier work
[9] = system: interaction of Ago2 with Dicer and eIF3L; experiment: Targeted mass spectrometry of Ago2 interactions in FUS R495X-expressing cells; type: cell-based; details: Cycloheximide 0.02 μg/ml, 72 hrs
Procedure: (FIG. 9A) The ratio of pre-miRNA to mature miRNA levels in NSC-34 cells, transfected with plasmids as indicated and in cells treated for 72 hrs with carrier alone (water, black) or with cycloheximide (CHX, 0.02 μg/ml, gray). Data normalized to control plasmid transfection. Pre-miRNAs further normalized to Gapdh (for FUS R495X, TDP-43 A315T) or to beta-actin (SOD1 G93A) and miRNA levels normalized to Snord68. Average of three independent experiments except for pre-miRNAs in the study of FUS R495X (n=2). Targeted quantitative mass spectrometry analysis of changes in the binding of Ago2 or Dicer to a set of proteins interactors under stress (FIGS. 9B-E). Immunoprecipitated Ago2-Flag (FIG. 9B) or Dicer-Flag (FIG. 9C) from HEK 293 cells, cultured under basal conditions or treated with sodium arsenite (0.5 mM, 60 min) was subjected to targeted mass-spectrometry analysis. Data is averaged from two or three different peptide standards per protein and normalized to the levels of co-immunoprecipiated peptides from untreated cells. Statistically significant result in a student t-test, between arsenite and control treatment is denoted (*p<0.05). Targeted mass spectrometry of (FIG. 9D) Dicer cofactors or (FIG. 9E) SG components, immunoprecipitated with AGO-Flag in FUS R495X-expressing HEK 293 that were further treated for 72 hrs with carrier alone or Cycloheximide (0.02 μg/ml). […]

[10] = system: NSC-34 cells transfected with FUS R495X, TDP-43 A315T or SOD1 G93A; experiment: Ratio of pre-miRNA to miRNA levels in NSC-34 cells transfected with ALS-causing mutants; type: cell-based; details: CHX 0.02 μg/ml, 72 hrs
Text: Ratio of pre-miRNA to miRNA expression levels in NSC-34 cells, transfected with plasmids that drive the expression of FUS R459X (FIG. 10A), TDP-43 A315T (FIG. 10B) or SOD1 G93A (FIG. 10C), relative to control plasmid transfection. […] Average of 3 independent experiments, except for pre-miRs in FUS R495X (n=2).
RNA was extracted using Tri reagent (Molecular Research Center Inc.) or Qiazol with consecutive use of the miRNeasy Mini Kit (Qiagen). Pre-miRNA and miRNA reverse transcription was performed using miScript Kits No. I & II (Qiagen). Quantitative analysis of miRNA and pre-miRNA expression performed in more than 3 independent biological repeats and additionally in technical duplicates with StepOnePlus quantitative Real-Time PCR System and 2-sided ANOVA-test performed with DataAssist Software (Life technologies Inc.). […]

[11] = oral 800 mg/kg-bodyweight/day from day 42
[12] = 200 mg/kg in drinking water from the age of 50 days

CCn1cc(C(=O)O)c(=O)c2cc(F)c(N3CCNCC3)nc21 [Enoxacin]
mature miRNA expression [1]: recovers the downregulation of mature miRNA expression
pre-miRNA levels [1]: reverses pre-miRNA upregulation
gross strength (hangwire assay) ([2]; 200 mg/kg-bodyweight/day): significant improvement in gross strength
homecage locomotion (InfraMot) ([2]; 200 mg/kg-bodyweight/day, 46 hrs, day 129-130): moved significantly more than untreated controls
Rotarod performance ([2]; 200 mg/kg-bodyweight/day, day 120, normalized to day 50): beneficial impact; also recorded: stable performance at day 120
swing speed (CatWalk gait analysis) ([2]; 800 mg/kg-bodyweight/day, day 73): significantly higher
stride length (CatWalk gait analysis) ([2]; 800 mg/kg-bodyweight/day, day 80): significantly increased
Rotarod performance ([2]; 800 mg/kg-bodyweight/day, normalized to day 92): significantly improved performance
delay at the onset of neurological symptoms (neurological score 1) [2, 11]: about 7 days
neurological status (neurological score) [2, 11]: superior to untreated controls
onset of weight decline (loss of 1 gram body weight after the weight peak) [2, 11]: delayed
weight peak [2, 11]: delayed
survival / lifespan (Kaplan-Meier) ([2]; oral 800 mg/kg-bodyweight/day from day 42, 800 mg/kg): no significant differences; also recorded: did not extend the lifespan
Rotarod performance up to day 120 ([3]; 200 mg/kg-bodyweight/day): stable performance up to day 120 of life
gross strength (hangwire assay) ([3]; 200 mg/kg-bodyweight/day): improved
average stride length (Catwalk) ([3]; 200 mg/kg-bodyweight/day, day 83): longer
Rotarod test ([3]; oral 200 mg/kg-bodyweight/day from day 42): performed better than the untreated control group
neurological score ([3]; oral 200 mg/kg-bodyweight/day from day 42, female mice): better than that of untreated controls
activity in mice ([4]; 100 mg/kg orally in drinking water per day): active
mean serum peak concentrations ([4]; mice, 100 mg/kg orally in drinking water per day): 4 mg/L
toxicity in mice ([4]; mouse, in vivo): non-toxic
expression of miRNAs in the frontal cortex (frontal cortex of rats): increase the expression of miRNAs
impact on depression (frontal cortex of rats): beneficial impact
gross strength in a hang-wire test (SOD1 G93A mice; [12]): beneficial impact
neurological score (SOD1 G93A mice; [12]): beneficial impact
overall lifespan (SOD1 G93A mice; [12]): marginal effect
overall locomotive function in a computerized cat-walk assay (SOD1 G93A mice; [12]): beneficial impact
deterioration in mouse neuromuscular function (SOD1 G93A mice; neurological score, hang-wire test, automated cat-walk study): slower
serum peak concentration expressed in molar terms [5]: 12.5 µM
mRNA levels of Ago2, Dicer, PACT and TRBP [6]: remained unchanged
miRNA levels in lumbar spinal cords ([6]; from day 42, harvest day 90): compensated
mature miRNA expression [7]: reversed the negative impact of ALS-causing TDP-43 or FUS mutants on miRNA maturation; also recorded: recovers the downregulation of mature miRNA expression
pre-miRNA levels [7]: reverses pre-miRNA upregulation
plasma peak concentration [8]: 3.7 µg/mL

C[C@@H]1C[C@@H]([C@H](O)CC2CC(=O)NC(=O)C2)C(=O)[C@@H](C)C1 [cycloheximide]
mutant-induced interaction of Ago2 with Dicer and eIF3L [9]: reduced mutant-induced interaction of Ago2 with Dicer and eIF3L
Dicer complex activity (ratio of pre-miRNA to mature miRNA) [10]: prevented the reduction in Dicer complex activity
